This is an account of results in US6653286B1, “Gonadotropin releasing hormone antagonist” (Akzo Nobel NV, priority 1997, dated 2003).

Series [1] has as its system pituitary-gonadal axis. The conditions noted are these: cited from earlier work.
For series [2], the system named is premature LH surges. Briefly: phase II double-blind dose-finding study of ganirelix in women undergoing controlled ovarian hyperstimulation with recFSH. Type of series: in vivo, human. The protocol:
In order to establish the minimum effective dose of ganirelix to prevent premature LH surges in women undergoing COH with recombinant FSH, a double-blind dose-finding study was performed with 6 test doses ranging between 2 mg and 0.0625 mg ganirelix.
This study was a phase II, multi-centre, double-blind, randomized, dose-finding study to assess the efficacy of the GnRH-antagonist ganirelix to prevent premature LH surges in women undergoing controlled ovarian hyperstimulation with recFSH. The dosages of ganirelix are administered by one daily SC administration.
RecFSH treatment started on day 2 of the menstrual cycle (treatment day -5) by a once daily SC injection. From treatment day -5 through day -1 the dose of recFSH was fixed at 150 IU daily. After 5 days of recFSH treatment (day 7 of the menstrual cycle), ganirelix treatment was started by daily SC administration. Treatment continued until and including the last day of recFSH administration. During ganirelix treatment, the dose of recFSH was adjusted depending on the individual ovarian response as assessed by daily ultra sonographic scan (USS). As soon as at least 3 folicles ≧17 mm measured by USS were observed, hCG was administered for ovulation induction. About 30-36 hours thereafter oocyte pick-up was performed followed by in vitro fertilization (IVF) with or without intracytoplasmic sperm injection (ICSI). No more than 3 embryos were replaced.
If during ganirelix treatment a premature LH rise occurred e.g. at least one value of serum LH ≧15 IU/L according to the local LH immunoassay the investigator canceled the cycle or tried to rescue the cycle by giving hCG prematurely. In addition, the investigator notified the sponsor about the occurrence of the LH rise and the central laboratory was requested to confirm the LH rise was ≧10 IU/L according to the central LH immunoassay. Subsequently, all data of such subject with a premature LH rise were forwarded to an Independent Advisory Committee which was installed in order to advice on stopping a treatment arm in case of LH rises during ganirelix treatment.
During the study, some investigators informed the sponsor on one or more cases of extremely low serum LH and failing estradiol concentrations as well as follicle growth arrest after starting ganirelix treatment. For this reason the External Independent Advisory Committee was requested to review all clinical data available in order to evaluate whether these observations were dose related and whether, in their opinion, there was reason to stop one or more treatment arms.
In addition, the Independent Advisory Committee reviewed all rises of LH (≧15 IU/L according to the local LH immunoassay and ≧10 IU/L according to the central LH immunoassay) during ganirelix treatment. Based on their evaluation the External Committee advised the sponsor to stop the highest (2 mg) and lowest (0.0625 mg) treatment dose of ganirelix. The study was completed for the other dosage groups.
In total 333 subjects started recFSH treatment and 332 subjects started ganirelix treatment. Because of major protocol violation 3 subjects were excluded from the analysis. The final number of patients per dosing group are included in Table 1.

Square brackets hold non-standard residues; d marks the D form. Peptide text beside a SMILES is read from it. d(hArg(Et2)) = CCN=C(NCC)NCCCC[C@@H](N)C(=O)O; hArg(Et2) = CCN=C(NCC)NCCCC[C@H](N)C(=O)O; dPhe(4-Cl) = N[C@H](Cc1ccc(Cl)cc1)C(=O)O; d2Nal = N[C@H](Cc1ccc2ccccc2c1)C(=O)O; d3Pal = N[C@H](Cc1cccnc1)C(=O)O

Regarding `CCN=C(NCC)NCCCC[C@H](NC(=O)[C@H](CC(C)C)NC(=O)[C@@H](CCCCNC(=NCC)NCC)NC(=O)[C@H](Cc1ccc(O)cc1)NC(=O)[C@H](CO)NC(=O)[C@@H](Cc1cccnc1)NC(=O)[C@@H](Cc1ccc(Cl)cc1)NC(=O)[C@@H](Cc1ccc2ccccc2c1)NC(C)=O)C(=O)N1CCC[C@H]1C(=O)N[C@H](C)C(N)=O` [ganirelix, N-Acetyl-3-(2-naphtyl)-D-alanyl-4-chloro-D-phenylalanyl-3-(3-pyridyl)-D-alanyl-L-seryl-L-tyrosyl-N^ω,N^ω-diethyl-D-homoarginyl-L-leucin-N^ω,N^ω-diethyl-Lhomoarginyl-L-propyl-D-alanylamide acetate] (Ac-[d2Nal][dPhe(4-Cl)][d3Pal]SY[d(hArg(Et2))]L[hArg(Et2)]P[dA]-NH2), the “suppression of the pituitary-gonadal axis” value in series [1] (1 mg or 2 mg daily SC for 8 consecutive days, reproductive age women) is reported as “rapid, profound, reversible suppression”. Besides, the “maximal mean LH suppression” value in series [1] (8 h after the first injection, 1 mg or 2 mg daily SC) is listed as “approximately 60%”. For the same molecule, the “Median serum E2 (estradiol) at the day of hCG (= last day of ganirelix)” value turned out to be 1475 pg/mL in series [2] (0.0625 mg daily SC); 1130 pg/mL in series [2] (0.125 mg daily SC); 1160 pg/mL in series [2] (0.25 mg daily SC); 823 pg/mL in series [2] (0.5 mg daily SC); 703 pg/mL in series [2] (1 mg daily SC); 430 pg/mL in series [2] (2 mg daily SC). Besides, the “Median serum LH at the day of hCG (= last day of ganirelix)” value stood at 3.56 IU/L in series [2] (0.0625 mg daily SC); 2.46 IU/L in series [2] (0.125 mg daily SC); 1.73 IU/L in series [2] (0.25 mg daily SC); 1.02 IU/L in series [2] (0.5 mg daily SC); 0.57 IU/L in series [2] (1 mg daily SC); 0.34 IU/L in series [2] (2 mg daily SC). Moreover, the “Incidence of LH rises” value in series [2] (0.0625 mg daily SC, N = 31, number of subjects (%)) is 5 (16%); in series [2] (0.125 mg daily SC, N = 65, number of subjects (%)), 6 (9.2%); in series [2] (0.25 mg daily SC, N = 69, number of subjects (%)), 1 (1.4%); in series [2] (0.5 mg daily SC, N = 69, number of subjects), 0; in series [2] (1 mg daily SC, N = 65, number of subjects), 0; in series [2] (2 mg daily SC, N = 30, number of subjects), 0. Moreover, in series [2] (0.0625 mg to 2 mg daily SC), the “Serum ganirelix concentration versus dose” value is “increased in a dose-proportional manner”. Besides, in series [2] (2 mg dose group), the miscarriage rate is 13%. The “vital pregnancy rate per attempt” value in series [2] (2 mg dose group, per attempt (those who started hormonal treatment)) is 3.8%. In series [2] (2 mg dose group, per transfer (those who had embryo transfer)), the “vital pregnancy rate per transfer” value is 4.3%.
